# Columns and labels:
# [1] = system: T1, CTL2-GFP (C. trachomatis L2/434/Bu, GFP-expressing); assay: microbe, parasite or virus in culture; parameters: Intracellular C. trachomatis growth in HeLa cells, bulk GFP fluorescence relative to DMSO; details: Chlamydia trachomatis, HeLa, 28.5 h; bulk GFP, mean of 2; read-out: % of control remaining
# T1 construct: L2/434/Bu, GFP-expressing
# Procedure: MICs were calculated as described above.
# [2] = system: T2, C. trachomatis L2/434/Bu expressing GFP (CTL2-GFP); assay: microbe, parasite or virus in culture; parameters: C. trachomatis total inclusion area by high-content imaging, normalised to DMSO; details: Chlamydia trachomatis, HeLa, 28.5 h; total inclusion area; read-out: % of control remaining
# T2 construct: L2/434/Bu GFP intracellular growth in HeLa cells
# From the text: We screened a library of 36,785 small molecules displaying drug-like properties and covering a wide chemical space (Fig 1A and S2A Data). In this process, we also complemented the assay described above with an imaging-based readout (Fig 1B). After measurements of bulk GFP and resorufin fluorescence, cells were fixed, stained with the DNA dye Hoechst, and imaged at a high-content imaging platform to detect chlamydial inclusions (GFP) and host cell nuclei (Hoechst). The total area and number of inclusions in individual wells and the number of nuclei then served as additional proxies for chlamydial growth and host cell viability. […] MICs were calculated as described above.
# [3] = in vitro; parameters: Viability of infected HeLa host cells, resazurin conversion, bulk resorufin fluorescence relative to DMSO; details: human, hela cells; bulk resorufin, mean of 2
# [4] = in vitro; details: human, hela cells, % viability
Structure (SMILES),activity at 1 µM [1] [%],activity at 5 µM [1] [%],activity at 10 µM [1] [%],activity at 1 µM [2] [%],activity at 5 µM [2] [%],activity at 10 µM [2] [%],"viability at 28.5 h, 1 µM [3] [%]","viability at 28.5 h, 5 µM [3] [%]","viability at 28.5 h, 10 µM [3] [%]","viability at 28.5 h, 10 µM [4] [%]"
CC(C)(CN)CN(Cc1ccccc1Br)C(=O)NC(c1ccccc1)c1ccccc1 [CBK002488C],150,114,85.7,112,116,38.2,92.2,93.1,90,
CN(C(=O)c1ccc(Cl)c(Cl)c1)[C@H]1CCC[C@H]1N1CCCC1 [CBK003411C],32.2,0.223,1.01,52.8,1.24,0.29,112,111,118,
FC(F)(F)c1ccc(N2CCNCC2)nc1OCc1ccc2c(c1)OCCO2 [CBK003994A],106,40.3,22.5,82.5,8.88,7.41,100,103,96.6,
CCOc1ccc2nc(NC(=N)N)nc(C)c2c1 [CBK010384C],121,24.6,4.24,87,20.7,1.75,90.4,102,94.8,
CC(=O)NC[C@H]1CN(c2ccc(C#N)c(C)c2)C(=O)O1 [CBK010393],120,98,55.2,102,94.2,42.5,89.7,90.3,89.8,
O=C(O)c1cn(C2CC2)c2cc(N3CCNCC3)c(F)cc2c1=O [CBK011645],12.8,1.31,0,11.1,0.824,0.167,,,,
c1c(C2CC2)[nH]c2nc(N3CCCC3)nc(N3CCCC3)c12 [CBK016707G],3.94,11.1,20.9,0.765,0.748,3.52,99.1,96.9,86.9,
N=C(N)SCc1csc(-c2ccc(Br)cc2)n1 [CBK017064C],126,97.9,33.1,80.7,91.3,25.6,90.5,88.9,91.1,
CC(=O)NC[C@H]1CN(c2ccc(C3=CC[S+]([O-])CC3)c(F)c2)C(=O)O1 (some centres unmarked) [CBK017555],134,11.9,18.3,85.7,7.09,1.05,88,95.4,86.3,
CC(NC(C)(C)C)C(O)COc1ccc(Cl)c2c1C1CCC2CC1 (centres unmarked) [CBK017752C],125,126,66.4,68,78.7,17.5,90.2,95,92.2,
O=C(CCN1CCCCC1)Nc1ccc2c(=O)n3c(nc2c1)/C(=C/c1ccccc1)CC3 [CBK017786],142,56.7,26.3,109,20.7,10.4,91.6,90.4,92.6,
Cc1ccc(OCc2ccccc2)c(C(CCN(C(C)C)C(C)C)c2ccccc2)c1 (centres unmarked) [CBK017906],148,124,61.5,112,73.2,22,91.6,92.3,86,
CC(=O)NC[C@H]1CN(c2ccc(-c3nnc(C(C)O)s3)c(F)c2)C(=O)O1 (some centres unmarked) [CBK017968],51.4,2.06,5.93,46.6,0.644,0.166,91.4,90.3,90.8,
Cc1noc(-c2ccc3c(c2O)OCCO3)c1-c1ccc(Cl)cc1 [CBK018086],62.5,3.44,2.13,73.6,0.782,0.691,96.5,97.6,99,
CC(=O)NC[C@H]1CN(c2ccc3c(c2)CCN(C(C)=O)CC3)C(=O)O1 [CBK018491],112,8.52,0.0674,57.6,10.2,1.08,91.8,95.1,112,
COCCN1CC(CNC(=O)c2ccc(N3CCCC3)c(Cl)c2)CC1=O (centres unmarked) [CBK307680],,,,,,,,,,84

Structure (SMILES),activity at 1 µM [1] [%],activity at 5 µM [1] [%],activity at 10 µM [1] [%],activity at 1 µM [2] [%],activity at 5 µM [2] [%],activity at 10 µM [2] [%],"viability at 28.5 h, 1 µM [3] [%]","viability at 28.5 h, 5 µM [3] [%]","viability at 28.5 h, 10 µM [3] [%]","viability at 28.5 h, 10 µM [4] [%]"
CN1CCC(OCCCn2ccnc2-c2nccn2C)CC1 [CBK307683],,,,,,,,,,96.2
CCC(C(=O)Nc1nccs1)N(C)Cc1n[nH]c2c1CCC2 (centres unmarked) [CBK307685],,,,,,,,,,99
CC1(C)Cc2nc(N3CCOCC3)ncc2C(NC(=O)C2CCCC2)C1 (centres unmarked) [CBK307687],,,,,,,,,,115
CCCc1ccc(-c2nccn2CCn2cc(C)nn2)o1 [CBK307688],,,,,,,,,,101
Cn1ncc(N2CCC(CNC(=O)Cc3ccc(O)c(Cl)c3)C2)cc1=O (centres unmarked) [CBK307689],,,,,,,,,,113
Cc1nc(C2CC(O)C2)cc(N(C)CCOc2cccc(Cl)c2)n1 (centres unmarked) [CBK307691],,,,,,,,,,94.6
CCOc1ccc(-c2ccnc(NCC3CCCOC3)n2)cc1C(=O)O (centres unmarked) [CBK307694],,,,,,,,,,88.2
Cc1ccc(C)c(OCCN(C)c2cc(C3CC(N)C3)nc(N)n2)c1 (centres unmarked) [CBK307695],,,,,,,,,,45.4
CCOc1ccc(-c2ccnc(N3CCN(CC)CC3)n2)cc1C(=O)O [CBK307697],,,,,,,,,,80.6
CCC(O)CNC(=O)c1coc(COc2ccc3sc(C)nc3c2)n1 (centres unmarked) [CBK307700],,,,,,,,,,90.8
Cn1ncc2c(NCC(=O)N3CCNCC3)nc(C(C)(C)C)nc21 [CBK307702],,,,,,,,,,120
CCCOC1CCCN(c2nccc(-c3cc(C(=O)O)ccn3)n2)C1 (centres unmarked) [CBK307703],,,,,,,,,,101
COCCNc1nc2c(c(N3CCC(C#N)CC3)n1)CCNCC2 [CBK307706],,,,,,,,,,86.6
Cc1ccc2nc(N3CCCC(O)C3)c(CN3CCN(C)CC3)cc2c1 (centres unmarked) [CBK307710],,,,,,,,,,100
CCN(CCc1nc2cc(OC)ccc2[nH]1)C(=O)c1ccc(=O)n(C)n1 [CBK307712],,,,,,,,,,108
COc1ccccc1CN(Cc1cccnc1)C(=O)CCC(F)(F)F [CBK307713],,,,,,,,,,92.3
